Experimental data as given in ChEMBL document CHEMBL5113463, “Discovery and preclinical evaluations of JBD0131, a novel nitrodihydro-imidazooxazole anti-tuberculosis agent” (Bioorg Med Chem Lett, 2022).
pIC50: −log10 of the molar value. In brackets after ≈: the same amount, converted by molar mass.

Columns and labels:
[1] = Half life in Sprague-Dawley rat at 1 mg/kg, iv; format: ADME, organism-based; settings: in vivo
[2] = Half life in Beagle dog at 0.5 mg/kg, iv; format: ADME, organism-based, Canis lupus familiaris; settings: in vivo
[3] = Cmax in Sprague-Dawley rat at 4 mg/kg, po; format: ADME, organism-based; parameters: dose 4 mg/kg, route po; settings: in vivo
[4] = AUC (0-last) in Beagle dog at 2 mg/kg, po; format: ADME, organism-based, Canis lupus familiaris; settings: in vivo
[5] = target: Voltage-dependent L-type calcium channel subunit alpha-1C (Homo sapiens, UniProt Q13936); test: Inhibition of human Cav1.2
[6] = target: Sodium channel protein type 5 subunit alpha (Homo sapiens, UniProt Q14524); test: Inhibition of NaV 1.5 (unknown origin)
Sequence of Sodium channel protein type 5 subunit alpha (Q14524 whole entry): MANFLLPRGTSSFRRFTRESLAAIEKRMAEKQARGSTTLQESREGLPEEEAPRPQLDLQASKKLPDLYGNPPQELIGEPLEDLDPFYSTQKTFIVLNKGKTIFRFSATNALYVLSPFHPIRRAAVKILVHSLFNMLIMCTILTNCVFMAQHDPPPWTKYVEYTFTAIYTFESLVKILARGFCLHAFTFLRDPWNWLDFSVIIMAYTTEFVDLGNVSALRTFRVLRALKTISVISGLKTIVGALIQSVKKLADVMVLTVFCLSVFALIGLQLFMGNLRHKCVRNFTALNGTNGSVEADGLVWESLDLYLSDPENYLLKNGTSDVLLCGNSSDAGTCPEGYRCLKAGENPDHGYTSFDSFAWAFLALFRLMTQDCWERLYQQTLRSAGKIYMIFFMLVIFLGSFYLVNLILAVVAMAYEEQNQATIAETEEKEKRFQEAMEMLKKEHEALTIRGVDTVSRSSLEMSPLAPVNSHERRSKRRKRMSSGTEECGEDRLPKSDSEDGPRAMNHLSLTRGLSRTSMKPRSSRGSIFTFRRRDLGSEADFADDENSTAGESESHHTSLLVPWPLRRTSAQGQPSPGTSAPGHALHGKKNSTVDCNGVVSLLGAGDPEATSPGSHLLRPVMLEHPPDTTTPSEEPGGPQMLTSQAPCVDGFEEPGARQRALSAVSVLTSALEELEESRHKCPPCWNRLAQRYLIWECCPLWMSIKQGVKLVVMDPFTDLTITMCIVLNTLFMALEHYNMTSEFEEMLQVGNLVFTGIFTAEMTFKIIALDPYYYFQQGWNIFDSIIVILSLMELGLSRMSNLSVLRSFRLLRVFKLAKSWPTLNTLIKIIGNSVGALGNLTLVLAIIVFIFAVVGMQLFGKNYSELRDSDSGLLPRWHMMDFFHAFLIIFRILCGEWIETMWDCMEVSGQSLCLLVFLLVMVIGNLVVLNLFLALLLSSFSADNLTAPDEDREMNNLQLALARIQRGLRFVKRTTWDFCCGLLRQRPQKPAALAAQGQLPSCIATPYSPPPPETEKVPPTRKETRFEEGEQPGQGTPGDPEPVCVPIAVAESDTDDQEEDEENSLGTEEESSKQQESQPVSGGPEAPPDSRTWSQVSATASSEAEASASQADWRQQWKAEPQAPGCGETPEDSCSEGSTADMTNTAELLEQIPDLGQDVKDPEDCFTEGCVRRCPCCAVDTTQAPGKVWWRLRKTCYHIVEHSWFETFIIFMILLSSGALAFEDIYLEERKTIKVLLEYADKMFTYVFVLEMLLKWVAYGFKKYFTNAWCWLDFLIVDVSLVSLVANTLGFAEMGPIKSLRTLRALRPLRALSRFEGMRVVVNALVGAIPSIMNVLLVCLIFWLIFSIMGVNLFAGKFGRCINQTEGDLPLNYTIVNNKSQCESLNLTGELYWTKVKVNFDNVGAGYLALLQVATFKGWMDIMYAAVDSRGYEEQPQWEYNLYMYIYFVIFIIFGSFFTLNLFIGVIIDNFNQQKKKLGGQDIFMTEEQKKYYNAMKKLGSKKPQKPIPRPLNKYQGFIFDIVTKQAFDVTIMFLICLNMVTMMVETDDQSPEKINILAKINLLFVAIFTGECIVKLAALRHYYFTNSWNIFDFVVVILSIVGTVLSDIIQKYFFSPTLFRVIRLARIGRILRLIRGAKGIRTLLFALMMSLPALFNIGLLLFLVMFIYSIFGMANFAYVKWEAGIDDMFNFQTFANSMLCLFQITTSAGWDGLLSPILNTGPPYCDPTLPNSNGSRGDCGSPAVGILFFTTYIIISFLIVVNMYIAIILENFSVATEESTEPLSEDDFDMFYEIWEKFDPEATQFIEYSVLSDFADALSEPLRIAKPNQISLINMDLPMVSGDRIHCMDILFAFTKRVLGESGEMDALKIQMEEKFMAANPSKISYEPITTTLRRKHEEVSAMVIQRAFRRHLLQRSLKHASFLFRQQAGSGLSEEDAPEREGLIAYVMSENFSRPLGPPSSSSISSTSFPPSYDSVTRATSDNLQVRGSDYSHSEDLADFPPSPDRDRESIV

[7] = Cmax in Beagle dog at 2 mg/kg, po; format: ADME, organism-based, Canis lupus familiaris; parameters: dose 2 mg/kg, route po; settings: in vivo
[8] = target: T1, A-type voltage-gated potassium channel KCND3 (Homo sapiens, UniProt Q9UK17); test: Inhibition of Kv4.3 (unknown origin)
T1 sequence (Q9UK17 whole entry): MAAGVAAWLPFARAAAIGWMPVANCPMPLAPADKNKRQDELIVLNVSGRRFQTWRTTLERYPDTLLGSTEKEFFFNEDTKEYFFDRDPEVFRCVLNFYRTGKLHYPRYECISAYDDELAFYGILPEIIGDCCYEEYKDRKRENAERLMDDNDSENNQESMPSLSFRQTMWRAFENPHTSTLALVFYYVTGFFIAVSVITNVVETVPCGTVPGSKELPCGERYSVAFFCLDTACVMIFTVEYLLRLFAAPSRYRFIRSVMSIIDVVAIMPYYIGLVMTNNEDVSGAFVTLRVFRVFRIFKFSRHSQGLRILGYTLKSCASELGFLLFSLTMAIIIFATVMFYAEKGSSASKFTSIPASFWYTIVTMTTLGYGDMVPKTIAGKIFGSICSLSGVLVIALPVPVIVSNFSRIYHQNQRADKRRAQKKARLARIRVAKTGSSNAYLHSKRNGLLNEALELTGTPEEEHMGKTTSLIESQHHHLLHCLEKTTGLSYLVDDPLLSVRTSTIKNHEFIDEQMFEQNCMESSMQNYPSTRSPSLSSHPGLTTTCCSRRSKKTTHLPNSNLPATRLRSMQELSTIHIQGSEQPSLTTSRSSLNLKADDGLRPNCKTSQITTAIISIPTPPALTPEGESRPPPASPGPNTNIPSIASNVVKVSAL

[9] = target: Voltage-gated inwardly rectifying potassium channel KCNH2 (Homo sapiens, UniProt Q12809); test: Inhibition of human ERG; format: toxicity
Sequence of Voltage-gated inwardly rectifying potassium channel KCNH2 (Q12809 whole entry): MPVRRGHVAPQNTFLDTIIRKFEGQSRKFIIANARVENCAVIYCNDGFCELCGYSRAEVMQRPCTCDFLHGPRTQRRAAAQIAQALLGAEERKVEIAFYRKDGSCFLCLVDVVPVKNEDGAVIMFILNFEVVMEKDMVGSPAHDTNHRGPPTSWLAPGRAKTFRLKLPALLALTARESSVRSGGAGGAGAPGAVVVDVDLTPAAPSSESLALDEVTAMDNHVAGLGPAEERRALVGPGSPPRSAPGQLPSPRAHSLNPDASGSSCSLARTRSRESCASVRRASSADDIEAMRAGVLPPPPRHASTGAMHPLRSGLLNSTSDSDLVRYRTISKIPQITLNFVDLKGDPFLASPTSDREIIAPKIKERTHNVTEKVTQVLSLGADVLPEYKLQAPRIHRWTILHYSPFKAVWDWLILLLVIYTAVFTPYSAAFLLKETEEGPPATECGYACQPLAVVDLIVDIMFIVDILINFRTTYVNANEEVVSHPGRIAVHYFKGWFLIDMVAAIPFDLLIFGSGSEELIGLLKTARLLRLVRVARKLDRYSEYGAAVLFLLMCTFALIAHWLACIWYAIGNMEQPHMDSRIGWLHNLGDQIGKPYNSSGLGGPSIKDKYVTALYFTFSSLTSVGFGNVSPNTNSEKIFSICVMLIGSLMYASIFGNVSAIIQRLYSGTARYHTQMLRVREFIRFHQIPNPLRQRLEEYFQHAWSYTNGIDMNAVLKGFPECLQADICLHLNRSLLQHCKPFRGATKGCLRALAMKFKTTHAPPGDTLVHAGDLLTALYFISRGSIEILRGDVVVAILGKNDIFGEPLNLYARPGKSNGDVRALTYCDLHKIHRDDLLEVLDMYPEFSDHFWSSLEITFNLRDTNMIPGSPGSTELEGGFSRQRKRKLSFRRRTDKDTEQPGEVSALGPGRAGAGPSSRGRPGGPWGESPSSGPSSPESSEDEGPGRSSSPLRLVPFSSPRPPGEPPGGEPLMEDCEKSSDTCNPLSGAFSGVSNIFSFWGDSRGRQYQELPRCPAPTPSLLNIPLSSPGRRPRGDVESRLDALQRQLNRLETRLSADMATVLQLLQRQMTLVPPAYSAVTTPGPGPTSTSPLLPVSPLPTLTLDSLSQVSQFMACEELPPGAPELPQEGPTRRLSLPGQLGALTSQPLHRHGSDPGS

[10] = AUC (0-last) in Sprague-Dawley rat at 4 mg/kg, po; format: ADME, organism-based; settings: in vivo
[11] = Metabolic stability in human assessed as half life; format: ADME
[12] = Volume of distribution in CD-1 mouse at 0.6 mg/kg, iv; format: ADME, organism-based; settings: in vivo
[13] = Cmax in CD-1 mouse at 5 mg/kg, po; format: ADME, organism-based; parameters: dose 5 mg/kg, route po; settings: in vivo
[14] = Half life in CD-1 mouse at 0.6 mg/kg, iv; format: ADME, organism-based; settings: in vivo
[15] = Cytotoxicity against African green monkey vero cells assessed as reduction in cell viability; format: toxicity, cell-based; settings: chlorocebus sabaeus
[16] = system: Mycobacterium tuberculosis; test: Antimycobacterial activity against Mycobacterium tuberculosis H37Rv assessed as bacterial growth inhibition incubated for 7 days by MABA assay; format: functional; settings: 168 h, time 7 day
[17] = AUC (0-last) in CD-1 mouse at 5 mg/kg, po; format: ADME, organism-based; parameters: dose 5 mg/kg, route po; settings: in vivo
[18] = Oral bioavailability in CD-1 mouse at 5 mg/kg; format: ADME, organism-based; settings: in vivo
[19] = Metabolic stability in human liver microsomes assessed as half life; format: ADME, Microsome
[20] = Metabolic stability in mouse liver microsomes assessed as half life; format: ADME, Microsome
[21] = system: Mycobacterium tuberculosis; test: Antimycobacterial activity against Mycobacterium tuberculosis H37Rv assessed as bacterial growth inhibition incubated for 10 days under hypoxic condition followed by 28 hrs incubation under normoxic condition by Low-Oxygen-Recovery Assay; format: functional; settings: 264 h, time 11 day
[22] = Metabolic stability in rat liver microsomes assessed as half life; format: ADME, Microsome
[23] = Clearance in CD-1 mouse at 0.6 mg/kg, iv; format: ADME, organism-based; settings: in vivo

Row | SMILES | pIC50 [9] | Vd [12] | Cmax [13] | half-life [14] | CC50 [15] | MIC [16] | half-life [19] | half-life [20] | half-life [22] | other results
1 | C[C@]1(CN2Cc3nc(-c4ccc(F)cc4)sc3C2)Cn2cc([N+](=O)[O-])nc2O1 | 5.77 |  |  |  |  |  |  |  |  | half-life [1]: 279 min; half-life [2]: 918 min; Cmax [3]: 57.9 nM; AUClast [4]: 166 ng·h; pIC50 [5]: 4.88; pIC50 [6]: 4.89; Cmax [7]: 5.82 nM; pIC50 [8]: < 4.40; AUClast [10]: 574 ng·h
2 | C[C@]1(COc2ccc(N3CCC(Oc4ccc(OC(F)(F)F)cc4)CC3)cc2)CN=C(N)O1 [DM-6705] | 7.09 |  |  |  |  |  |  |  |  | half-life [11]: 122 h
3 | C[C@]1(CN2Cc3nc(-c4ccc(F)cc4F)sc3C2)Cn2cc([N+](=O)[O-])nc2O1 |  | 2.66 L/kg | 182 ng/mL | 185 min | > 32 µg/mL | < 0.013 µg/mL |  |  |  | AUClast ([17]; mouse): 1789 ng·h/mL; F ([18]; mouse, po, 5 mg/kg): 9.6%
4 | C[C@]1(CN2CCc3nc(-c4ccc(F)cc4)sc3CC2)Cn2cc([N+](=O)[O-])nc2O1 |  |  |  |  | > 32 µg/mL | 0.03 µg/mL (≈ 0.0699 µM) | 15 min | 7 min | 8 min | MIC [21]: > 8 µg/mL
5 | C[C@]1(CN2Cc3nc(-c4ccc(F)cn4)sc3C2)Cn2cc([N+](=O)[O-])nc2O1 |  | 2.02 L/kg | 385 ng/mL | 103 min | > 32 µg/mL | 0.03 µg/mL (≈ 0.0746 µM) |  |  |  | clearance [23]: 12.7 mL/min/kg; AUC(0-t) ([17]; CD-1, mouse): 2920 ng·h/mL; bioavailability ([18]; CD-1, mouse): 24.5%
6 | C[C@]1(CN2Cc3nc(-c4ccc(F)cc4)oc3C2)Cn2cc([N+](=O)[O-])nc2O1 |  |  |  |  | > 32 µg/mL | 0.021 µg/mL (≈ 0.0545 µM) | 59 min | 43 min | 39 min | 
